# According to patent publication US12357695B2, “Peptides and nanoparticles for intracellular delivery of molecules” (AADIGEN, LLC, priority 2019, dated 2025):
# Square brackets hold non-standard residues; d marks the D form. Ends that are not written are not given here. Stearyl = stearyl group covalently linked to the N-terminus; βAla = NCCC(=O)O
# Tests used:
# [1] = tested on: 293T cells; test: Cellular delivery of Luciferase mRNA, luciferase expression at 72 hrs; type: cell-based; details: 0.25 μg Luc mRNA; for reduction of efficiency / luciferase expression after serum treatment: complexes incubated 3 hrs in 25% serum prior transfection; for reduction of efficiency / luciferase expression after heparan sulfate treatment: complexes incubated 3 hrs with heparan sulfate prior transfection; for luciferase expression: absence of serum or heparan sulfate treatment
# Procedure: FIGS. 1A-1C show luciferase expression in 293T cells treated with ADGN-peptide/mRNA complexes. 293T cells cultured in 48 well plates were transfected with ADGN-peptide nanoparticles. ADGN-100, ADGN-106, ADGN-100RI, ADGN-106RI, ADGN-100 Stearyl, ADGN-Hydro1, ADGN-Hydro2, ADGN-Hydro3, ADGN-Hydro4, ADGN-Hydro5, ADGN-Hydro6 and ADGN-peptide/ADGN-100PEG 10% nanoparticles containing 0.25 μg mRNA were formed in sterile water, diluted in sterile water containing 5% Sucrose and filtered with 0.45 μm PES filters. ADGN/mRNA complexes were incubated for 3 hrs in the presence of either 25% serum or heparan sulfate prior transfection. Luciferase expression was monitored 72 hours post transfection and results were reported as RLU (luminescence):mg of protein.
# (§1) Complex formation with mRNA. The following protocols were used for the transfection of 2-5 106 Cells or Cells at confluency of about 70-80% cultured in 24 well plates. ADGN peptide/mRNA particles were prepared at a 20:1 molar ratio of ADGN-Peptide/mRNA. using (0.25 μg) mRNA. Luc mRNA (0.25 μg) was diluted in 20 μl of sterile water (GIBCO) at room temperature. 5 μl Final Peptide Solution was added to obtain a total volume of 20 μl. The volume was adjusted to 50 μl with sterile water and was mixed gently with vortex 1 min low speed and incubated 30 min at room temperature. Then the volume was made up to 100 μl by adding sterile water containing 5% sucrose, and the solution was mixed gently with vortex 1 min low speed and incubate 5 min at 37° C. and then was proceeded to cell transfection.
# Transfection protocol. Protocol is reported for 24 well plate format. Cells were cultured in Dulbecco's Modified Eagle's Medium (DMEM), supplemented with 2 mM glutamine, 1% antibiotics (streptomycin 10,000 μg/mL, penicillin, 10,000 IU/mL) and 10% (w/v) foetal calf serum (FCS), at 37° C. in a humidified atmosphere containing 5% CO2. 24 well plates seeded with 150,000 cells the day prior to transfection were grown to 50-60% confluence and set up to be at about 70% confluences at the time of transfection. Before transfection, cells were washed twice with DMEM. Cells were then overlaid with 0.1 ml of ADGN-peptide/cargo complex solution containing 0.25 μg mRNA, 0.15 μg plasmid DNA or 10-25 nM siRNA, mixed gently, and incubated for 10 min at 37° C. 0.2 mL of fresh DMEM, were added and cells were incubated for 20 min at 37° C. 1 mL of complete DMEM containing 15% FCS were then added in order to reach a final FCS concentration of 10%, without removing the overlay of ADGN-peptide/cargo complexes. Cells were returned to the incubator (37° C., 5% CO2) and 72 hrs post transfection.
# ADGN-peptides were evaluated for cellular delivery of Luciferase mRNA in 293T cells. A single dose of mRNA of 0.25 μg was evaluated. Luc mRNA (0.25 μg) in sterile water (GIBCO) were mixed with ADGN-100, ADGN-100RI, ADGN-106, ADGN-106RI, ADGN-100 Stearyl, ADGN-Hydro1, ADGN-Hydro2, ADGN-Hydro5 and ADGN-Hydro6. ADGN-peptide/mRNA complexes were filtered with 0.45 μm PES filter. In order to evaluate the stability of the ADGN/mRNA complexes in high serum and cell culture conditions, the complexes were incubated for 3 hrs in the presence of either 25% serum or heparan sulfate prior transfection, then 293T cells were transfected and Luciferase expression was monitored at 72 hrs.
# ADGN-106 peptides containing YIGSR targeting sequence were evaluated for cellular delivery of Luciferase mRNA in 293T cells. A single dose of mRNA of 0.25 μg was evaluated. Luc mRNA (0.25 μg) in sterile water (GIBCO) were mixed with ADGN-106 and ADGN-106Hydro variant. ADGN-peptide/mRNA complexes were filtered with 0.45 μm PES filter. The ADGN-106/mRNA complexes were incubated for 3 hrs in the presence of 25% serum prior transfection, then 293T cells were transfected and Luciferase expression was monitored at 72 hrs.
# [2] = DLS particle size and level of aggregation of ADGN-peptide/pGL4 plasmid DNA complexes; type: physicochemical; details: pGL4 5.6 kb plasmid
# Procedure: as §1, with “with plasmid DNA.” for “with mRNA.”, “ADGN peptide/plasmid DNA pGL4” for “ADGN peptide/mRNA”, “of ADGN-Peptide/pGL4.” for “of ADGN-Peptide/mRNA.”, “using (0.2 μg). PGL4 plasmid (0.15” for “using (0.25 μg) mRNA. Luc mRNA (0.25”, “temperature. 10” for “temperature. 5”
# (§2) The ability of the different ADGN-peptides to form stable nanoparticles with DNA pGL4 a 5.6KpB plasmid expression Luciferase was analyzed. The particle sizes and level of aggregation were measured on DLS NanoZS (Malvern Ltd). The mean size and the polydispersity of the ADGN/plasmid DNA complexes were determined at 25° C. for 3 minute per measurement. In order to remove large particles, ADGN/plasmid DNA complexed were filtered using either PES or PVDF 0.45 μm filters. Data are shown in FIG. 10 for a mean of 3 separate experiments.
# [3] = DLS particle size and level of aggregation of ADGN-peptide/mRNA complexes; type: physicochemical; details: retro inverso modification vs parent peptide
# Procedure: as §1
# as §2, with “mRNA” for “DNA pGL4 a 5.6KpB plasmid expression Luciferase”, “ADGN/mRNA” for “ADGN/plasmid DNA”, “8 and FIG. 9” for “10”
# [4] = absence of serum or heparan sulfate
Substance,"reduction of efficiency / luciferase expression by modification or linker vs unmodified ADGN peptide [1, 4]",ability to form stable nanoparticles/complex with plasmid DNA [2],reduction of efficiency / luciferase expression after serum treatment [1] [%],reduction of efficiency / luciferase expression after heparan sulfate treatment [1] [%],ability of the peptide to form stable complex with mRNA [3],luciferase expression [1],"potency relative to ADGN-100 [1, 4] [fold]"
Stearyl-βA-KWRSALWRWRLWRVRSWSR-NH2 (Stearyl-[βAla]KWRSALWRWRLWRVRSWSR-NH2; not fully specified; printed as Stearyl-βA-KWRSALWRWRLWRVRSWSR-NH2) [ADGN-100 Stearyl],not significantly affected,,,,,,
akwllrwlsrwlrwlarwlr ([dA][dK][dW][dL][dL][dR][dW][dL][dS][dR][dW][dL][dR][dW][dL][dA][dR][dW][dL][dR]; also: retro-inverso) [ADGN-106-RI],did not modify,did not improve the potency of ADGN-106 to form stable particle with plasmid,26,13,did not modify the ability of the peptide to form stable complex with mRNA,,
rswsrvrwlrwrwgasrwk ([dR][dS][dW][dS][dR][dV][dR][dW][dL][dR][dW][dR][dW]G[dA][dS][dR][dW][dK]; also: retro-inverso) [ADGN-100-RI],did not modify,did not modifie the ability of the peptide to form stable complex with plasmid DNA,40,16,did not modify the ability of the peptide to form stable complex with mRNA,,
βAKWRSAGWRWRLW RVRSWSR (AKWRSAGWRWRLWRVRSWSR; N-terminal beta-alanine; VARIANT 1 beta-A) [ADGN-100],,,90,50,,high level of luciferase expression,
βALWRALWRLWRSLWRLLWKA ([βAla]LWRALWRLWRSLWRLLWKA) [ADGN-106],,large size and a the poor stability,,50,,high level of luciferase expression,2
